According to US4971967A, “Quinolinecarboxylic acid derivatives, antibacterial compositions and use” (Kanebo Ltd, priority 1989, dated 1990):
Converted amounts (≈) assume the structure as drawn. Counter-ions that a name gives are not always drawn. Like-named read-outs stand apart in the source and are kept apart here.

Key:
Assay type in all cases: cell-based
[1] = test system: Klebsiella pneumoniae PCI-602; experiment: Antibacterial activity (MIC), Klebsiella pneumoniae PCI-602; settings: PCI602; Klebsiella pneumoniae PCI-602, Gram -; read-out: Minimum inhibitory concentration (MIC)
Protocol: (§1) The compounds of the present invention (A, C, D, E, F, G, H, I, J, L, O and P) and the known compound (X) as reference were dissolved in 0.1 N aqueous sodium hydroxide to prepare a solution of 5000 μg/ml in concentration. The compounds of the present invention (B, K, M and N) and the known compound (Y) were dissolved in sterilized distilled water to prepare a solution of 5000 μg/ml in concentration. Each solution was diluted with sterilized distilled water to prepare a standard solution with a concentration of each test compound: 1000 μg/ml. The test was carried out by a method as appointed by Japan Society of Chemotherapy [cf. Chemotherapy, 29, 76-79 (1981)(TOKYO)].

[2] = test system: Streptococcus faecalis IID 682; experiment: Antibacterial activity (MIC), Streptococcus faecalis IID 682; settings: Enterococcus faecalis
Protocol: as §1

Escherichia coli KC-14 = experiment: Antibacterial activity (MIC), E. coli KC-14; settings: KC14; Escherichia coli KC-14, Gram -; read-out: Minimum inhibitory concentration (MIC)
Protocol: as §1

[3] = test system: Enterobacter aerogenes ATCC 13048; experiment: Antibacterial activity (MIC), Enterobacter aerogenes ATCC 13048; settings: Klebsiella aerogenes, ATCC13048; Enterobacter aerogenes ATCC 13048, Gram -; read-out: Minimum inhibitory concentration (MIC)
Protocol: as §1

[4] = test system: Micrococcus luteus ATCC 9341; experiment: Antibacterial activity (MIC), Micrococcus luteus ATCC 9341; settings: ATCC9341; Micrococcus luteus ATCC 9341, Gram +; read-out: Minimum inhibitory concentration (MIC)
Protocol: as §1

[5] = test system: Acinetobacter calcoaceticus AC 54; experiment: Antibacterial activity (MIC), Acinetobacter calcoaceticus AC 54; settings: AC54; Acinetobacter calcoaceticus AC 54, Gram -; read-out: Minimum inhibitory concentration (MIC)
Protocol: as §1

Proteus vulgaris OX-19 = experiment: Antibacterial activity (MIC), Proteus vulgaris OX-19; settings: OX19; Proteus vulgaris OX-19, Gram -; read-out: Minimum inhibitory concentration (MIC)
Protocol: as §1

[6] = test system: Serratia marcescens IAM 1184; experiment: Antibacterial activity (MIC), Serratia marcescens IAM 1184; settings: Serratia marcescens, IAM1184, Serratia marcescens IAM 1184, Gram -; read-out: Minimum inhibitory concentration (MIC)
Protocol: as §1

[7] = test system: Staphylococcus epidermidis IAM-1296; experiment: Antibacterial activity (MIC), S. epidermidis IAM-1296; settings: Staphylococcus epidermidis, IAM1296, Staphylococcus epidermidis IAM-1296, Gram +; read-out: Minimum inhibitory concentration (MIC)
Protocol: as §1

[8] = test system: Staphylococcus aureus IID 803; experiment: Antibacterial activity (MIC), S. aureus IID 803
Protocol: as §1

[9] = test system: Staphylococcus aureus FDA 209P JC-1; experiment: Antibacterial activity (MIC), S. aureus FDA 209P JC-1; settings: FDA209P, read-out: Minimum inhibitory concentration (MIC)
Protocol: as §1

[10] = test system: Pseudomonas aeruginosa NCTC 10490; experiment: Antibacterial activity (MIC), P. aeruginosa NCTC 10490; settings: Pseudomonas aeruginosa, NCTC10490, Pseudomonas aeruginosa NCTC 10490, Gram -; read-out: Minimum inhibitory concentration (MIC)
Protocol: as §1

[11] = test system: Pseudomonas aeruginosa E-2; experiment: Antibacterial activity (MIC), P. aeruginosa E-2; settings: E2; Pseudomonas aeruginosa E-2, Gram -; read-out: Minimum inhibitory concentration (MIC)
Protocol: as §1

Enterobacter cloacae 963 = experiment: Antibacterial activity (MIC), Enterobacter cloacae 963; settings: Enterobacter cloacae, 963, Enterobacter cloacae 963, Gram -; read-out: Minimum inhibitory concentration (MIC)
Protocol: as §1

[12] = test system: Bacillus subtilis ATCC 6633; experiment: Antibacterial activity (MIC), Bacillus subtilis ATCC 6633; settings: Bacillus subtilis, ATCC6633, Bacillus subtilis ATCC 6633, Gram +; read-out: Minimum inhibitory concentration (MIC)
Protocol: as §1

Shigella sonnei EW-33 = experiment: Antibacterial activity (MIC), Shigella sonnei EW-33; settings: Shigella sonnei, EW33, Shigella sonnei EW-33, Gram -; read-out: Minimum inhibitory concentration (MIC)
Protocol: as §1

[13] = test system: Salmonella typhimurium IID 971; experiment: Antibacterial activity (MIC), Salmonella typhimurium IID 971; settings: Salmonella enterica, read-out: Minimum inhibitory concentration (MIC)
Protocol: as §1

[14] = test system: Pseudomonas aeruginosa IFO 3445; experiment: Antibacterial activity (MIC), P. aeruginosa IFO 3445; settings: Pseudomonas aeruginosa, IFO3445, Pseudomonas aeruginosa IFO 3445, Gram -; read-out: Minimum inhibitory concentration (MIC)
Protocol: as §1

[15] = test system: Morganella morganii IFO 3848; experiment: Antibacterial activity (MIC), Morganella morganii IFO 3848; settings: Morganella morganii, IFO3848, Morganella morganii IFO 3848, Gram -; read-out: Minimum inhibitory concentration (MIC)
Protocol: as §1

[16] = test system: Proteus mirabilis IFO 3849; experiment: Antibacterial activity (MIC), Proteus mirabilis IFO 3849; settings: IFO3849; Proteus mirabilis IFO 3849, Gram -; read-out: Minimum inhibitory concentration (MIC)
Protocol: as §1

[17] = test system: Escherichia coli NIHJ JC-2; experiment: Antibacterial activity (MIC), E. coli NIHJ JC-2; settings: NIHJJC2; Escherichia coli NIHJ JC-2, Gram -; read-out: Minimum inhibitory concentration (MIC)
Protocol: as §1

[18] = test system: Citrobacter freundii NIHJ 10018-68; experiment: Antibacterial activity (MIC), Citrobacter freundii NIHJ 10018-68; settings: Citrobacter freundii, NIHJ10018, Citrobacter freundii NIHJ 10018-68, Gram -; read-out: Minimum inhibitory concentration (MIC)
Protocol: as §1

[19] = IID682, read-out: Minimum inhibitory concentration (MIC)
[20] = IID803, Staphylococcus aureus IID 803, Gram +, read-out: Minimum inhibitory concentration (MIC)
[21] = Staphylococcus aureus FDA 209P JC-1, Gram +
[22] = IID682, Streptococcus faecalis IID 682, Gram +, read-out: Minimum inhibitory concentration (MIC)
[23] = Salmonella typhimurium IID 971, Gram -

SMILES	MIC [1] [µg/mL]	MIC (Escherichia coli KC-14) [µg/mL]	MIC [3] [µg/mL]	MIC [4] [µg/mL]	MIC [5] [µg/mL]	MIC (Proteus vulgaris OX-19) [µg/mL]	MIC [6] [µg/mL]	MIC [7] [µg/mL]	MIC [8, 20] [µg/mL]	MIC [9, 21] [µg/mL]	MIC [10] [µg/mL]	MIC [11] [µg/mL]	MIC (Enterobacter cloacae 963) [µg/mL]	MIC [12] [µg/mL]	MIC (Shigella sonnei EW-33) [µg/mL]	MIC [14] [µg/mL]	MIC [15] [µg/mL]	MIC [16] [µg/mL]	MIC [17] [µg/mL]	MIC [18] [µg/mL]	further results
CN1Cc2csc3c(C(=O)O)c(=O)c4cc(F)c(N5CCC(O)C5)c1c4n23 (centres unmarked) [Compound (G), 9,1-(Methylimino)methano-7-fluoro-8-(3-hydroxy-1-pyrrolidinyl)-5-oxo-5H-thiazolo[3,2-a]quinoline-4-carboxylic acid]	0.006 (≈ 0.0154 µM)	0.1 (≈ 0.257 µM)	0.2 (≈ 0.514 µM)	0.39 (≈ 1 µM)	0.006 (≈ 0.0154 µM)	0.0125 (≈ 0.0321 µM)	0.78 (≈ 2 µM)	0.0125 (≈ 0.0321 µM)	0.0125 (≈ 0.0321 µM)	0.0125 (≈ 0.0321 µM)	0.39 (≈ 1 µM)	0.78 (≈ 2 µM)	0.2 (≈ 0.514 µM)	0.006 (≈ 0.0154 µM)	0.05 (≈ 0.128 µM)	0.78 (≈ 2 µM)	0.2 (≈ 0.514 µM)	0.1 (≈ 0.257 µM)	0.1 (≈ 0.257 µM)	0.78 (≈ 2 µM)	MIC [2, 19]: 0.05 µg/mL (≈ 0.128 µM); MIC [13]: 0.05 µg/mL (≈ 0.128 µM)
CN1Cc2csc3c(C(=O)O)c(=O)c4cc(F)c(N5CCOCC5)c1c4n23 [Compound (I), 9,1-(Methylimino)methano-7-fluoro-8-morpholino-5-oxo-5H-thiazolo[3,2-a]quinoline-4-carboxylic acid]	0.006 (≈ 0.0154 µM)	0.1 (≈ 0.257 µM)	0.2 (≈ 0.514 µM)	0.1 (≈ 0.257 µM)	0.006 (≈ 0.0154 µM)	0.025 (≈ 0.0642 µM)	0.39 (≈ 1 µM)	0.025 (≈ 0.0642 µM)	0.006 (≈ 0.0154 µM)	0.006 (≈ 0.0154 µM)	0.2 (≈ 0.514 µM)	0.39 (≈ 1 µM)	0.1 (≈ 0.257 µM)	0.006 (≈ 0.0154 µM)	0.05 (≈ 0.128 µM)	0.39 (≈ 1 µM)	0.1 (≈ 0.257 µM)	0.1 (≈ 0.257 µM)	0.1 (≈ 0.257 µM)	0.78 (≈ 2 µM)	MIC [2, 19]: 0.05 µg/mL (≈ 0.128 µM); MIC [13]: 0.05 µg/mL (≈ 0.128 µM)
CN1Cc2csc3c(C(=O)O)c(=O)c4cc(F)c(N5CCN(O)CC5)c1c4n23 [Compound (L), 9,1-(Methylimino)methano-7-fluoro-8-(4-hydroxy-1-piperazinyl)-5-oxo-5H-thiazolo[3,2-a]quinoline-4-carboxylic acid]	0.006 (≈ 0.0148 µM)	0.1 (≈ 0.247 µM)	0.1 (≈ 0.247 µM)	0.78 (≈ 1.93 µM)	0.025 (≈ 0.0618 µM)	0.0125 (≈ 0.0309 µM)	0.78 (≈ 1.93 µM)	0.1 (≈ 0.247 µM)	–	–	0.39 (≈ 0.964 µM)	0.78 (≈ 1.93 µM)	0.1 (≈ 0.247 µM)	0.0125 (≈ 0.0309 µM)	0.05 (≈ 0.124 µM)	0.78 (≈ 1.93 µM)	0.1 (≈ 0.247 µM)	0.2 (≈ 0.495 µM)	0.1 (≈ 0.247 µM)	0.39 (≈ 0.964 µM)	MIC [2, 22]: 0.1 µg/mL (≈ 0.247 µM); MIC ([8]; Staphylococcus aureus, IID803, read-out: Minimum inhibitory concentration (MIC)): 0.05 µg/mL (≈ 0.124 µM); MIC ([9]; Staphylococcus aureus): 0.05 µg/mL (≈ 0.124 µM); MIC [13, 23]: 0.1 µg/mL (≈ 0.247 µM)
CCNCC1CCN(c2c(F)cc3c(=O)c(C(=O)O)c4scc5n4c3c2N(C)C5)C1 (centres unmarked) [Compound (M), 9,1-(Methylimino)methano-7-fluoro-8-(3-ethylaminomethyl-1-pyrrolidinyl)-5-oxo-5H-thiazolo[3,2-a]quinoline-4-carboxylic acid hydrochloride]	0.006	0.1	0.1	0.2	0.05	0.05	0.78	0.05	0.0125	0.025	0.39	1.56	0.2	0.0125	0.05	1.56	0.2	0.39	0.1	0.78	MIC [2, 22]: 0.05 µg/mL; MIC [13, 23]: 0.1 µg/mL
CNCC1CCN(c2c(F)cc3c(=O)c(C(=O)O)c4scc5n4c3c2N(C)C5)C1 (centres unmarked) [Compound (N), 9,1-(Methylimino)methano-7-fluoro-8-(3-methylaminomethyl-1-pyrrolidinyl)-5-oxo-5H-thiazolo[3,2-a]quinoline-4-carboxylic acid hydrochloride]	0.0125	0.05	0.2	0.2	0.05	0.05	0.78	0.05	0.0125	0.025	0.39	0.78	0.1	0.025	0.05	0.78	0.2	0.39	0.1	0.78	MIC [2, 22]: 0.05 µg/mL; MIC [13, 23]: 0.1 µg/mL
